Results as given in patent publication US20060014801A1, “Prevention and treatment of cognitive impairment using (R)-(-)-5-methyl-1-nicotynoyl-2-pyrazoline (MNP) and analogs” (The Johns Hopkins University, priority 2002, published 2006).
Like-named read-outs stand apart in the source and are kept apart here.

Assay: Pharmacokinetics of MNP in the rat (plasma, LC/MS/MS)
Format: in vivo, male Sprague-Dawley rats
Settings: for concentration at 5 min / concentration at 15 min / concentration at 30 min / concentration at 60 min / concentration at 120 min / concentration at 180 min / concentration at 240 min / concentration at 480 min / concentration at 720 min / concentration at 1440 min: mean ± s.e.m., 3 rats, read-out: MNP plasma levels
Description: Pharmacokinetic experiments were conducted. MNP was dissolved in saline solution (0.9% NaCl) and administered to male Sprague-Dawley rats (weighing 250-315 grams) with vascular catheters surgically placed in both jugular veins (Charles River, Wilmington, Mass.). The catheter on the left jugular vein was used for intravenous infusion of 5 mg/kg MNP (in the animals that received the i.v. dosing), while the catheter on the right jugular vein was used for blood sample collection. Oral doses of MNP (50 and 200 mg/kg) were administered by oral gavage. […] The samples were collected in heparin-coated microtainers, spun down in a microcentrifuge (14,000 rpm for 7 minutes) to separate out the blood plasma and frozen until analyzed. Plasma levels were quantitated by LC/MS/MS analysis (Applied Biosystems/MDS SCIEX API 3000).
The pharmacokinetic parameters Cmax, tmax, area-under-the-curve (AUC), clearance, and half-life (t1/2) were calculated for oral doses of MNP (50 and 200 mg/kg) and are described in Table II. These parameters are compared to the intravenous dose (5 mg/kg) to determine the oral bioavailability (Foral) of MNP in the rat. […] The roughly 30-minute terminal half-life calculated for the intravenous dose of MNP (5 mg/kg) was similar to previously reported data (Umemura et al., Stroke, 1996; 27:1624-1628).

[1] = male, Sprague-Dawley, plasma, intravenous, 5 mg/kg i.v.
[2] = male, Sprague-Dawley, plasma, iv, 5 mg/kg i.v., approximate value
[3] = male, Sprague-Dawley, plasma, oral, 50 mg/kg p.o.
[4] = male, Sprague-Dawley, plasma, oral, 200 mg/kg p.o.
[5] = male, Sprague-Dawley, plasma, po, 50 mg/kg p.o., approximate value
[6] = male, Sprague-Dawley, plasma, po, 200 mg/kg p.o., approximate value

C[C@@H]1CC=NN1C(=O)c1cccnc1 [MNP, (R)-(−)-5-methyl-1-nicotinoyl-2-pyrazoline]
Time of secondary plasma peak (50 mg/kg oral dose): about 8 hours
˜Clearance (50 mg/kg p.o., approximate value, Clearance = Dose/AUC): ~4.8 mL/min
Plasma levels at 24 hours post-administration (200 mg/kg oral dose): significant plasma levels
˜Clearance (200 mg/kg p.o., approximate value, Clearance = Dose/AUC): ~7.8 mL/min
Oral bioavailability (in words) (based on AUC and Foral for both oral doses (50 and 200 mg/kg)): highly bioavailable
half-life (male, Sprague-Dawley, plasma, 5 mg/kg intravenous dose, read-out: Terminal half-life): ~30 min
concentration at 5 min [1]: 6550 ± 32 ng/mL
concentration at 15 min [1]: 4530 ± 60 ng/mL
concentration at 30 min [1]: 2880 ± 95 ng/mL
concentration at 60 min [1]: 1300 ± 75 ng/mL
concentration at 120 min [1]: 272 ± 9 ng/mL
concentration at 180 min [1]: 51 ± 3 ng/mL
concentration at 240 min [1]: 13 ± 1 ng/mL
concentration at 480 min [1]: 2 ± 1 ng/mL
concentration at 720 min [1]: 3 ± 2 ng/mL
concentration at 1440 min [1]: 2 ± 0.5 ng/mL
AUC [2]: ~4220 ng·h/mL
Cmax [2]: ~6550 ng/mL
Tmax [2]: ~5 min
clearance (male, Sprague-Dawley, plasma, iv, 5 mg/kg i.v., approximate value, Clearance = Dose/AUC): ~5.6 mL/min
bioavailability (male, Sprague-Dawley, plasma, oral, 50 mg/kg p.o. vs 5 mg/kg i.v., effects of saturation and accumulation unknown, read-out: ˜Bioavailability (Foral; %)): ~119%
concentration at 5 min [3]: 16000 ± 1720 ng/mL
concentration at 15 min [3]: 16000 ± 933 ng/mL
concentration at 30 min [3]: 13600 ± 1120 ng/mL
concentration at 60 min [3]: 9980 ± 976 ng/mL
concentration at 120 min [3]: 6140 ± 1980 ng/mL
concentration at 180 min [3]: 4180 ± 1640 ng/mL
concentration at 240 min [3]: 2470 ± 792 ng/mL
concentration at 480 min [3]: 2850 ± 755 ng/mL
concentration at 720 min [3]: 536 ± 327 ng/mL
concentration at 1440 min [3]: 9 ± 6 ng/mL
bioavailability (male, Sprague-Dawley, plasma, oral, 200 mg/kg p.o. vs 5 mg/kg i.v., effects of saturation and accumulation unknown, read-out: ˜Bioavailability (Foral; %)): ~80%
concentration at 5 min [4]: 50300 ± 2640 ng/mL
concentration at 15 min [4]: 41300 ± 3210 ng/mL
concentration at 30 min [4]: 36500 ± 5570 ng/mL
concentration at 60 min [4]: 21600 ± 3790 ng/mL
concentration at 120 min [4]: 11000 ± 2190 ng/mL
concentration at 180 min [4]: 5700 ± 1970 ng/mL
concentration at 240 min [4]: 5840 ± 1440 ng/mL
concentration at 480 min [4]: 2920 ± 343 ng/mL
concentration at 720 min [4]: 1160 ± 360 ng/mL
concentration at 1440 min [4]: 6250 ± 2830 ng/mL
AUC [5]: ~50200 ng·h/mL
Cmax [5]: ~16000 ng/mL
Tmax [5]: ~10 min
half-life (male, Sprague-Dawley, plasma, po, 50 mg/kg p.o., approximate value, read-out: ˜t1/2): ~150 min
AUC [6]: ~134000 ng·h/mL
Cmax [6]: ~50300 ng/mL
Tmax [6]: ~5 min
half-life (male, Sprague-Dawley, plasma, po, 200 mg/kg p.o., approximate value, read-out: ˜t1/2): ~90 min
bioavailability (male, Sprague-Dawley, plasma, po, based on the results of Example 2, read-out: Oral bioavailability): ≤ 80%
Oral absorption (oral gavage, significant plasma levels at the 5-min time point): rapidly absorbed
